In PMC12073402, “A Selective MAP3K1 Inhibitor Facilitates Discovery of NPM1 as a Member of the Network” (Molecules, 2025):

How the values were obtained:
Assay in all cases: KiNativ kinome profiling in PANC-1 lysate
Type in all cases: binding
CaMK1d = biological target: T1, CaMK1d (Homo sapiens, UniProt Q8IU85)
T1 construct: endogenous in cells; host or cells: PANC-1 cell lysate
Outline: (§1)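 PANC-1 lysates were incubated with 5 μM inhibitor or DMSO, then labeled with a desthiobiotin-ATP acyl-phosphate probe that biotinylates conserved kinase lysines. Tryptic peptides were streptavidin-enriched and quantified by LC-MS/MS, reported as % change in MS signal from duplicate treated and duplicate control samples.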

MARK3 = biological target: T2, MARK3 (Homo sapiens, UniProt P27448); conditions: Lys1
T2 construct: endogenous in cells; host or cells: PANC-1 cell lysate
Outline: as §1

NuaK1 = biological target: T3, NuaK1 (Homo sapiens, UniProt O60285); conditions: Lys1
T3 construct: endogenous in cells; host or cells: PANC-1 cell lysate
Outline: as §1

MAP2K4 = biological target: T4, MAP2K4 (Homo sapiens, UniProt P45985)
T4 construct: endogenous in cells; host or cells: PANC-1 cell lysate
Outline: as §1

CDK7 = biological target: T5, CDK7 (Homo sapiens, UniProt P50613)
T5 construct: endogenous in cells; host or cells: PANC-1 cell lysate
Outline: as §1

CHK2 = biological target: T6, CHK2 (Homo sapiens, UniProt O96017)
T6 construct: endogenous in cells; host or cells: PANC-1 cell lysate
Outline: as §1

PLK1 = biological target: T7, PLK1 (Homo sapiens, UniProt P53350)
T7 construct: endogenous in cells; host or cells: PANC-1 cell lysate
Outline: as §1

MLKL = biological target: T8, MLKL (Homo sapiens, UniProt Q8NB16); conditions: Lys1
T8 construct: endogenous in cells; host or cells: PANC-1
Outline: as §1

PAK2 = biological target: T9, PAK2 (Homo sapiens, UniProt Q13177)
T9 construct: endogenous in cells; host or cells: PANC-1 cell lysate
Outline: as §1

PHKg2 = biological target: T10, PHKg2 (Homo sapiens, UniProt P15735); conditions: Lys1
T10 construct: endogenous in cells; host or cells: PANC-1 cell lysate
Outline: as §1

TAK1 = biological target: T11, TAK1 (Homo sapiens, UniProt O43318); conditions: Lys2
T11 construct: endogenous in cells; host or cells: PANC-1 cell lysate
Outline: as §1

NEK2 = biological target: T12, NEK2 (Homo sapiens, UniProt P51955); conditions: Lys2
T12 construct: endogenous in cells; host or cells: PANC-1 cell lysate
Outline: as §1

MER, TYRO3 = conditions: 5 µM; ATP Loop; KIYSGDYYR
Outline: as §1

PFTAIRE1 = biological target: T13, PFTAIRE1 (Homo sapiens, UniProt O94921); conditions: Lys1
T13 construct: endogenous in cells; host or cells: PANC-1 cell lysate
Outline: as §1

p38a = biological target: T14, p38a (Homo sapiens, UniProt Q16539)
T14 construct: endogenous in cells; host or cells: PANC-1 cell lysate
Outline: as §1

Erk1 = biological target: T15, Erk1 (Homo sapiens, UniProt P27361); conditions: Lys2
T15 construct: endogenous in cells; host or cells: PANC-1 lysate
Outline: as §1

HER3/ErbB3 = biological target: T16, HER3/ErbB3 (Homo sapiens, UniProt P21860)
T16 construct: we opted to conduct a kinome screen (KiNativ) in PANC-1 cell lysates; endogenous in cells; host or cells: PANC-1 cell lysate
Outline: as §1

FER = biological target: T17, FER (Homo sapiens, UniProt P16591)
T17 construct: endogenous in cells; host or cells: PANC-1 lysate
Outline: as §1

PCTAIRE1 = biological target: T18, PCTAIRE1 (Homo sapiens, UniProt Q00536); conditions: Lys1
T18 construct: endogenous in cells; host or cells: PANC-1 cell lysate
Outline: as §1

SMG1 = biological target: T19, SMG1 (Homo sapiens, UniProt Q96Q15); conditions: ATP
T19 construct: endogenous in cells; host or cells: PANC-1 cell lysate
Outline: as §1

CK1d, CK1e = conditions: 5 µM; Lys2; DVKPDNFLMGLGKK
Outline: as §1

T5 sequence (P50613 whole entry): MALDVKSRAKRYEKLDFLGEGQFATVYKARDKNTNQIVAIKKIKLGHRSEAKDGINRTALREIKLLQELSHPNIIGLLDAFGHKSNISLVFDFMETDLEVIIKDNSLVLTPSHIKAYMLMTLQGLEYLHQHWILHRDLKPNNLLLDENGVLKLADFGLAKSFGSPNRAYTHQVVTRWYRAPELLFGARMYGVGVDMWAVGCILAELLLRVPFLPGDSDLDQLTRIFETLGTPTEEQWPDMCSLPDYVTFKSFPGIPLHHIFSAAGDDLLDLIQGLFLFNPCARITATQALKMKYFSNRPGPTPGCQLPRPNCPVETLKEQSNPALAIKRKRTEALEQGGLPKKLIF
T6 sequence (O96017 whole entry): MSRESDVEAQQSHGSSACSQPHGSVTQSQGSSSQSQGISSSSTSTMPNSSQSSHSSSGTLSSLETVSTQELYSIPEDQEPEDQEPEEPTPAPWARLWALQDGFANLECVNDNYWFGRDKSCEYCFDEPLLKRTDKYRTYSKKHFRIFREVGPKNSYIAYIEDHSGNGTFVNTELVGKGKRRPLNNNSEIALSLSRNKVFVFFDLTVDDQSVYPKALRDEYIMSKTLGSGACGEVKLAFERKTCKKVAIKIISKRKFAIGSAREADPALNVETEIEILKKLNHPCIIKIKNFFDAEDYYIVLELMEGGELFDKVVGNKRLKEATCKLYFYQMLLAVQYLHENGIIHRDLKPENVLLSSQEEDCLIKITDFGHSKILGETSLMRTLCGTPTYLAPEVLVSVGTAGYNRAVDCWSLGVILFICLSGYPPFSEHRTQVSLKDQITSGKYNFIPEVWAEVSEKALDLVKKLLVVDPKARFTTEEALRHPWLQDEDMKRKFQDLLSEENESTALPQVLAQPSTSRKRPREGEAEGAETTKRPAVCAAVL
T17 sequence (P16591 whole entry): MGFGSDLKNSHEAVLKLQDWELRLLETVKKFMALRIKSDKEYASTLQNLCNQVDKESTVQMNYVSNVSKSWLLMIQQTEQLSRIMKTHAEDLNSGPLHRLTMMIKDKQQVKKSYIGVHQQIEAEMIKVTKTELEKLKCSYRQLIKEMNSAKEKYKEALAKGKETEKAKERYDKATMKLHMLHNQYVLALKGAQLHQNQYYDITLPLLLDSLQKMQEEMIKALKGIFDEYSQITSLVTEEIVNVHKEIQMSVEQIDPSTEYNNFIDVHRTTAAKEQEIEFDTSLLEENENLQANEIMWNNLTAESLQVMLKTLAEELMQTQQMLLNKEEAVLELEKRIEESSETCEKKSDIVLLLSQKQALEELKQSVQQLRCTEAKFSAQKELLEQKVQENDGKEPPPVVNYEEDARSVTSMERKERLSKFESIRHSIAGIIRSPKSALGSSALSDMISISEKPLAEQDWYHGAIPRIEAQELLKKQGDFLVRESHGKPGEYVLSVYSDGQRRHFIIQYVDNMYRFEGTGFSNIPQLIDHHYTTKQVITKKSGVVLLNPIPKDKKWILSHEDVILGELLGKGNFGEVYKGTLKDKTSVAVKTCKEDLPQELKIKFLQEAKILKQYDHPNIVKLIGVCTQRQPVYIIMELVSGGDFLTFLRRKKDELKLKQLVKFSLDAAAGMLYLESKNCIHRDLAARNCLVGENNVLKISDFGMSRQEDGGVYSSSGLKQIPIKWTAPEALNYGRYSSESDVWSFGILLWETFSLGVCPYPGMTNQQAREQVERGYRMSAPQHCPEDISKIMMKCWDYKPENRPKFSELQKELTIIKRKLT
T16 sequence (P21860 20-1342): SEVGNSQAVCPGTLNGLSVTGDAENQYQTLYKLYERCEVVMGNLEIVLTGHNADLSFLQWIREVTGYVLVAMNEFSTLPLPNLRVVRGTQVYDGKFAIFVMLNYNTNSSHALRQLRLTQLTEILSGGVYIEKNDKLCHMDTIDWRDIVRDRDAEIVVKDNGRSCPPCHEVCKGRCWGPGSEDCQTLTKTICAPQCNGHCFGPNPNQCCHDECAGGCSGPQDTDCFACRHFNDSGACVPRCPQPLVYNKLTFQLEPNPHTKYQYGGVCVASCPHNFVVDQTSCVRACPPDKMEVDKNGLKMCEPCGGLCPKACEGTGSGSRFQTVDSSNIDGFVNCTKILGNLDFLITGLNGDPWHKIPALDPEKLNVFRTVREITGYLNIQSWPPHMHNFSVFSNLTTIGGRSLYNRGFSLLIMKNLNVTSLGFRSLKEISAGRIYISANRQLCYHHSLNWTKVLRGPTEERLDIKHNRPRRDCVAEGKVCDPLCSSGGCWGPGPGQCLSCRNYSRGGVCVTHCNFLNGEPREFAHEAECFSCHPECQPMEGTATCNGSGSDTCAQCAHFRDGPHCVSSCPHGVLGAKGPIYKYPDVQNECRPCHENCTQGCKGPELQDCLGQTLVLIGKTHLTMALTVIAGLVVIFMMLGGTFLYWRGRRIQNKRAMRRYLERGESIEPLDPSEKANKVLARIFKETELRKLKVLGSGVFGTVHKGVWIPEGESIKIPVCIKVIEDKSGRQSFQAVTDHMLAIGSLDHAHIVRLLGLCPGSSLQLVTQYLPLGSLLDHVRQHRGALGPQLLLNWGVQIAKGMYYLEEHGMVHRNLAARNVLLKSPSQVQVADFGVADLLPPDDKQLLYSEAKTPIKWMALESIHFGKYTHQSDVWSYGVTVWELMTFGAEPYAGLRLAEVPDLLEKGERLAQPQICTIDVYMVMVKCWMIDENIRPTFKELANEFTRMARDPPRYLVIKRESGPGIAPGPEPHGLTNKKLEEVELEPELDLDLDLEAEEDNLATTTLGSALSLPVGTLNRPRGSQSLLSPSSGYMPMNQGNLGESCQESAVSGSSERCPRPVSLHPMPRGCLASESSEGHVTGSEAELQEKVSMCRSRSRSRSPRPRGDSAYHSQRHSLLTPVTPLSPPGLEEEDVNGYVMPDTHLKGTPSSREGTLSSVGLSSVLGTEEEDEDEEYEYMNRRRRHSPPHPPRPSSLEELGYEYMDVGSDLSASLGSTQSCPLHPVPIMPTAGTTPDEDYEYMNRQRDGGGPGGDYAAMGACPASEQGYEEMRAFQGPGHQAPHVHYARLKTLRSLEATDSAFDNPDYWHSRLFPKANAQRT
T4 sequence (P45985 whole entry): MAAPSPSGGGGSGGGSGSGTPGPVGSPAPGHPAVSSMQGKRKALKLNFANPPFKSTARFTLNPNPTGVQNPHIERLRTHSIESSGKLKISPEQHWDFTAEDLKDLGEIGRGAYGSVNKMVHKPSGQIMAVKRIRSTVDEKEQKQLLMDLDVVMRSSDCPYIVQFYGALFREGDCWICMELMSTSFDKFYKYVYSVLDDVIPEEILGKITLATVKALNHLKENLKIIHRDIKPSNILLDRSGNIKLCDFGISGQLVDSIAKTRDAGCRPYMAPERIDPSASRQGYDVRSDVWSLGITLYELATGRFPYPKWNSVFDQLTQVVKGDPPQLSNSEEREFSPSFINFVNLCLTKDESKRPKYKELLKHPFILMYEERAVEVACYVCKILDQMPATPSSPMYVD
T1 sequence (Q8IU85 whole entry): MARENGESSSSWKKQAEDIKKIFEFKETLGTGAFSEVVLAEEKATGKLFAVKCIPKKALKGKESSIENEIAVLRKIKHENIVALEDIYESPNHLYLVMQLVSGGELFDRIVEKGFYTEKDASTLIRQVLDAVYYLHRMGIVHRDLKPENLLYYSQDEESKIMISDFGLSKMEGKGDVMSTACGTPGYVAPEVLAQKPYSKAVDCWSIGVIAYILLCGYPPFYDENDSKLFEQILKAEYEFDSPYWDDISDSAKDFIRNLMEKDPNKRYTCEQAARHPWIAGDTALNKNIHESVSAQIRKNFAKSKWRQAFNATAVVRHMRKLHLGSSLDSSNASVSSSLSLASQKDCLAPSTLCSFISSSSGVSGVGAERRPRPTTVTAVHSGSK
T9 sequence (Q13177 whole entry): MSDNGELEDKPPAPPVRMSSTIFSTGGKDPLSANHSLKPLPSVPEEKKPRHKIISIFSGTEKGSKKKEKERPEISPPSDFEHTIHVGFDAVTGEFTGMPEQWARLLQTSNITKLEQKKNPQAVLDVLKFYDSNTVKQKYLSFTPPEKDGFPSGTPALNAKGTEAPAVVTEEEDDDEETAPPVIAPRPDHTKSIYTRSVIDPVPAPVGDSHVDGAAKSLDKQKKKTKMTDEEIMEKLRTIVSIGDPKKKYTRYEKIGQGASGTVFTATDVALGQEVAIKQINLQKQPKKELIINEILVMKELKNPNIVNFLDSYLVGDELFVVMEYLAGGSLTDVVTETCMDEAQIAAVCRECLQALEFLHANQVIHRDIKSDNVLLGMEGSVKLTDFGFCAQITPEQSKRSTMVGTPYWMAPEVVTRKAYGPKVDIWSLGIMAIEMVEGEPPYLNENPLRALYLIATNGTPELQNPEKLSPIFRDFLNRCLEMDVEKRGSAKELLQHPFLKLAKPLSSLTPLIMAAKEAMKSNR
T14 sequence (Q16539 whole entry): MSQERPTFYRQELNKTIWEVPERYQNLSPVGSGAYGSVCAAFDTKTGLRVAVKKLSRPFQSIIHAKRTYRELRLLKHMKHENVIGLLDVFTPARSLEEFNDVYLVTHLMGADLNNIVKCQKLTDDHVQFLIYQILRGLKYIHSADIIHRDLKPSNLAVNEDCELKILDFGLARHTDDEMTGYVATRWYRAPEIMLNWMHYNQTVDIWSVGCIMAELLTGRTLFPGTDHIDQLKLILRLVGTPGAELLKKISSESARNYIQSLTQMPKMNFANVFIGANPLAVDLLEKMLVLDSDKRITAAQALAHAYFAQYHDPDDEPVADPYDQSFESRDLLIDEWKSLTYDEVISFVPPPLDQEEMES

With `Cn1cc(-c2cnc3ccc(NC(=O)Nc4ccc(F)c(C(F)(F)F)c4)cc3n2)cn1` [51-106, 1-(4-Fluoro-3-(trifluoromethyl)phenyl)-3-(3-(1-methyl-1H-pyrazol-4-yl)quinoxalin-6-yl)urea] the inhibition at 5 µM (CaMK1d; Lys1, LFAVKCIPK) was 30.3%, the inhibition at 5 µM (CaMK1d; Lys2, DLKPENLLYYSQDEESK) was ≤ 0% and the inhibition at 5 µM (MARK3) was ≤ 0%. For the same compound, the inhibition at 5 µM (NuaK1) was ≤ 0%, the inhibition at 5 µM (MAP2K4; ATP Loop, LCDFGISGQLVDSIAKTR) was 6% and the inhibition at 5 µM (MAP2K4; Lys2, DIKPSNILLDR) was ≤ 0%. The inhibition at 5 µM (CDK7; Lys1, DKNTNQIVAIKK) was 16.6%, the inhibition at 5 µM (CDK7; Lys2, DLKPNNLLLDENGVLK) was 1.6% and the inhibition at 5 µM (CHK2; Lys1, VAIKIISK) was 14.8%. For the same compound, the inhibition at 5 µM (CHK2; Lys2, DLKPENVLLSSQEEDCLIK) was ≤ 0%, the inhibition at 5 µM (PLK1; Lys1, CFEISDADTKEVFAGKIVPK) was ≤ 0% and the inhibition at 5 µM (PLK1; Lys2, DLKLGNLFLNEDLEVK) was 10.9%. The inhibition at 5 µM (MLKL) was ≤ 0%, the inhibition at 5 µM (PAK2; Lys1, IGQGASGTVFTATDVALGQEVAIKQINLQK) was 6.9% and the inhibition at 5 µM (PAK2; Other, KNPQAVLDVLKFYDSNTVK) was 0.8%. For the same compound, the inhibition at 5 µM (PHKg2) was ≤ 0%, the inhibition at 5 µM (TAK1) was ≤ 0% and the inhibition at 5 µM (NEK2) was ≤ 0%. The “% Inhibition” value (MER, TYRO3) was “NB (NB = No Binding (≤ 0))”, the inhibition at 5 µM (PFTAIRE1) was 7.7% and the inhibition at 5 µM (p38a; Lys2, DLKPSNLAVNEDCELK) was ≤ 0%. The inhibition at 5 µM (p38a; Other, QELNKTIWEVPER) was 7.5%, the inhibition at 5 µM (Erk1) was ≤ 0% and the inhibition at 5 µM (HER3/ErbB3; ATP Loop, SPSQVQVADFGVADLLPPDDKQLLYSEAKTPIK) was 2%. For the same compound, the inhibition at 5 µM (HER3/ErbB3; Lys1, GVWIPEGESIKIPVCIKVIEDK) was ≤ 0%, the “% Inhibition” value (FER; 5 µM, ATP Loop, QEDGGVYSSSGLKQIPIK) was “NB (NB = No Binding (≤ 0))” and the inhibition at 5 µM (FER; Lys1, […]) was ≤ 0%. The inhibition at 5 µM (PCTAIRE1) was ≤ 0%, the “% Inhibition” value (SMG1; 5 µM, DTVTIHSVGGTITILPTKTKPK) was “NB (NB = No Binding (≤ 0))” and the inhibition at 5 µM (SMG1; […]) was ≤ 0%. For the same compound, the “% Inhibition” value (CK1d, CK1e) was “NB (NB = No Binding (≤ 0))”.
